“And” between values parts separate entries of the source, which are not always exact repeats. Equal values may be shown once.
Experiments:
[1] = test system: fibers presumed to be nociceptors; parameters: species or system Swiss Webster mice
TRPV1 receptor [2] = molecular target: T1, TRPV1 receptor (Mus musculus, UniProt Q704Y3); assay: Capsaicin-induced Ca2+ rise in DRG neuronal primary cultures (Fluo-4 Ca2+ imaging); format: cell-based; parameters: we used Ca^2+ imaging of DRG neuronal primary culture for these experiments; endogenous in cells; host or cells: primary dorsal root ganglion neurons (thoracolumbar levels)
T1 sequence (Q704Y3 whole entry): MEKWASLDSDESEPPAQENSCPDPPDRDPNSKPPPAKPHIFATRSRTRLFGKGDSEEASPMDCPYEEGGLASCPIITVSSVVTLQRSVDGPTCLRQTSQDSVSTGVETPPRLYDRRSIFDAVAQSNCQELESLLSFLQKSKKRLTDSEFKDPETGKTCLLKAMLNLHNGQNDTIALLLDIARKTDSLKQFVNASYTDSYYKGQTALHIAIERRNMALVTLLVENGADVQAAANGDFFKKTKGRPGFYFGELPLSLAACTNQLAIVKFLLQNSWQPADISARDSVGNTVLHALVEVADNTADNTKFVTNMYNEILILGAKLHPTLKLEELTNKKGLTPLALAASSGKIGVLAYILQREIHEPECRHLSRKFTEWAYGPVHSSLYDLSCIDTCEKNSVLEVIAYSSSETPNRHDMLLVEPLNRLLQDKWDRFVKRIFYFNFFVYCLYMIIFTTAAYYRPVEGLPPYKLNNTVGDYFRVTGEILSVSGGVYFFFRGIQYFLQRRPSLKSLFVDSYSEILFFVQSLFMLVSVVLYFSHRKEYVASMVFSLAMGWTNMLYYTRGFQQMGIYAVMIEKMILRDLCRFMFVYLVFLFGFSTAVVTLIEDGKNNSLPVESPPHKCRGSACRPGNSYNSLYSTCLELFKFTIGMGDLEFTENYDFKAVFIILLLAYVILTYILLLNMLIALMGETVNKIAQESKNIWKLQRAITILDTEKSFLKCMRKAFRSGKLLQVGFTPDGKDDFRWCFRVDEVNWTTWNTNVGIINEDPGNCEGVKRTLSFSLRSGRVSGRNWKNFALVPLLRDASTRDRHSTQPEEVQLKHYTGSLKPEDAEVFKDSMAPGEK
Description: The spinal column was removed from the body, transferred to a beaker containing ice-cold Krebs, and bisected longitudinally. DRG were exposed and collected from the thoracolumbar levels. Whole DRG were washed twice with sterile Leibovitz's L-15 medium (GIBCO, Gaithersburg, Md.), and incubated for 40 min in collagenase type 1 at 1 mg/ml (Sigma-Aldrich; Oakville, ON, Canada) and 0.5 ml trypsin (0.25%, GIBCO) in 20 ml L-15 at 37° C. After further addition of 5 ml L-15 containing 10% fetal bovine serum (FBS, GIBCO), the ganglia were centrifuged for 5 min at 1,000 rpm, then washed twice with growth medium (L-15, containing 10% FBS, 1% Penicillin/Streptomycin/Glutamine, 1% HEPES and 1% Na Pyruvate). […]
DRG neurons were placed within a plexiglass recording dish and loaded with the Ca^2+ indicator Fluo-4-AM (8 μM) diluted in Krebs with 0.1% pluronic acid (in DMSO) at 37° C. for 60 min. […] Fluorescence intensity in individual neurons was recorded by Simple PCI 6 software (Compix Inc, Imaging systems, Sewickley, Pa.). […] Images, recorded at 0.9 frame/s, were stored on a local hard drive. Image files were analyzed off-line using Image J software (NIH, USA, http://imagej.nih.gov/ij). The increase in Fluo-4 Ca^2+ when applying capsaicin was measured as the ratio (F/F0) fluorescence intensity after capsaicin (F) divided by the intensity before capsaicin (F0). […]

TRPV1 receptor [3] = molecular target: T1, TRPV1 receptor; parameters: Segments of distal jejunum (˜2.5 cm) with attached mesenteric tissue were removed from freshly killed animals; from tissue; host or cells: mouse distal jejunum with attached mesenteric nerve bundle (ex vivo); species or system Swiss Webster mice

Row | Compound | single-unit response to distension [1] [Hz] | fluorescence rise ratio F/F0 evoked by capsaicin (TRPV1 receptor [2]; 1 μM capsaicin alone (control group, N=14)) | time to increase in intracellular Ca2+ after puffing capsaicin (TRPV1 receptor [2]; 1 μM capsaicin onto DRG neurons) [s] | capsaicin-evoked excitation with intramural synaptic blockage (TRPV1 receptor [3]; 1 μM capsaicin in presence of 500 nM each ω-Cg-GVIA and ω-Cg-MVIIC, n=12, P=0.947) [%] | capsaicin-evoked excitation (firing frequency increase) (TRPV1 receptor [3]; 1 μM capsaicin serosal, alone (control group), n=17) | maximal response (Top) obtained with capsaicin (TRPV1 receptor [3]; capsaicin alone, increase in firing frequency above baseline) [%] | onset latency of capsaicin-induced firing rate increase (TRPV1 receptor [3]; capsaicin applied to serosal compartment) [s] | Emax (TRPV1 receptor [3]; read-out: maximal response (Top) obtained with capsaicin, capsaicin alone, increase in firing frequency above baseline) [%] | EC50 (TRPV1 receptor [3]; serosal capsaicin 100 nM-100 μM, vagotomized mice, three-parameter logistic fit, read-out: EC50 for capsaicin alone (increase in firing frequency)) [nM]
1 | COc1cc(CNC(=O)CCCCCC(C)C)c(I)cc1O [6-Iodonordihydrocapsaicin] | 2.23±0.50 |  |  |  |  |  |  |  | 
2 | COc1cc(CNC(=O)CCCC/C=C/C(C)C)ccc1O [capsaicin] |  | 2.36±0.31 | ~30 | 219.1±72.6 | 187.5±42.9% and 187.5±43% | 238±27 | ~60 | 238 ± 27.5 | 200
